In the supplement of paper PMC8617591:

Key:
[1] = system: Mycobacterium tuberculosis Erdman (autoluminescent); assay: Einf, fitted maximum growth inhibition of three-drug combination (fraction); higher = stronger maximal inhibition
Experimental: (§1)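 DiaMOND equipotent three-drug combination dose responses (10 doses, 1.5- or 2-fold spacing, centred on IC90) against autoluminescent M. tuberculosis Erdman in 8 in vitro models. Read-out is OD600, or luminescence for the intracellular and dormancy models, normalised to untreated wells. Hill-fit Einf, AUC25 and GRinf are potency metrics; FIC50 and FIC90 are total Loewe fractional inhibitory concentrations as log2 (negative = synergy).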

[2] = system: Mycobacterium tuberculosis Erdman (autoluminescent); assay: AUC25, normalised area under dose response up to IC25 (three-drug combination) (fraction (0-1)); higher = more potent at low dose
Experimental: as §1

[3] = system: Mycobacterium tuberculosis Erdman (autoluminescent); assay: total FIC50 (Loewe) at 50% inhibition, three-drug combination (log2); higher = more antagonistic
Experimental: as §1

[4] = system: Mycobacterium tuberculosis Erdman (autoluminescent); assay: total FIC90 (Loewe) at 90% inhibition, three-drug combination (log2); higher = more antagonistic
Experimental: as §1

[5] = system: Mycobacterium tuberculosis Erdman (autoluminescent); assay: GRinf, maximum normalised growth rate inhibition (three-drug combination) (unitless (-1 to 1)); higher = less effect (negative = killing)
Experimental: as §1

[6] = in vitro model: acidic pH 5.7, time point: constant (~7 days, model-specific)
[7] = in vitro model: acidic pH 5.7, time point: terminal (~4-5 doublings, model-specific)
[8] = in vitro model: butyrate, time point: constant (~7 days, model-specific)
[9] = in vitro model: butyrate, time point: terminal (~4-5 doublings, model-specific)
[10] = in vitro model: cholesterol 0.05 mM, time point: constant (~7 days, model-specific)
[11] = in vitro model: cholesterol 0.05 mM, time point: terminal (~4-5 doublings, model-specific)
[12] = in vitro model: cholesterol-high 0.2 mM, time point: constant (~7 days, model-specific)
[13] = in vitro model: cholesterol-high 0.2 mM, time point: terminal (~4-5 doublings, model-specific)
[14] = in vitro model: dormancy (butyrate + nitrate, low O2), time point: constant (~7 days, model-specific)
[15] = in vitro model: dormancy (butyrate + nitrate, low O2), time point: terminal (~4-5 doublings, model-specific)
[16] = in vitro model: intracellular J774, time point: constant = terminal
[17] = in vitro model: standard 7H9 glycerol, time point: constant = terminal
[18] = in vitro model: valerate, time point: constant (~7 days, model-specific)
[19] = in vitro model: valerate, time point: terminal (~4-5 doublings, model-specific)

## CC(C)/N=c1\cc2n(-c3ccc(Cl)cc3)c3ccccc3nc-2cc1Nc1ccc(Cl)cc1 [clofazimine] + CC(=O)NC[C@H]1CN(c2ccc(N3CCOCC3)c(F)c2)C(=O)O1 [linezolid] + O=[N+]([O-])c1cn2c(n1)OC[C@@H](OCc1ccc(OC(F)(F)F)cc1)C2 [pretomanid]
[1]; [6]
  Einf: 0.845
[1]; [7]
  Einf: 0.964
[1]; [8]
  Einf: 0.962
[1]; [9]
  Einf: 0.98
[1]; [10]
  Einf: 0.677
[1]; [11]
  Einf: 0.918
[1]; [12]
  Einf: 0.922
[1]; [13]
  Einf: 1
[1]; [14]
  Einf: 0.925
[1]; [15]
  Einf: 0.986
[1]; [16]
  Einf: 0.996
[1]; [17]
  Einf: 0.951
[1]; [18]
  Einf: 0.85
[1]; [19]
  Einf: 0.892
[2]; [6]
  AUC25: 0.106
[2]; [7]
  AUC25: 0.0757
[2]; [8]
  AUC25: 0.124
[2]; [9]
  AUC25: 0.0915
[2]; [10]
  AUC25: 0.133
[2]; [11]
  AUC25: 0.136
[2]; [12]
  AUC25: 0.116
[2]; [13]
  AUC25: 0.123
[2]; [14]
  AUC25: 0.0841
[2]; [15]
  AUC25: 0.0337
[2]; [17]
  AUC25: 0.128
[2]; [18]
  AUC25: 0.14
[2]; [19]
  AUC25: 0.0928
[3]; [6]
  total FIC50: 0.0449
[3]; [7]
  total FIC50: 1.03
[3]; [8]
  total FIC50: 0.534
[3]; [9]
  total FIC50: 0.691
[3]; [10]
  total FIC50: -0.375
[3]; [11]
  total FIC50: 0.13
[3]; [12]
  total FIC50: 0.0459
[3]; [13]
  total FIC50: -0.122
[3]; [14]
  total FIC50: 0.87
[3]; [15]
  total FIC50: 0.422
[3]; [17]
  total FIC50: 0.0629
[3]; [18]
  total FIC50: 0.292
[3]; [19]
  total FIC50: 0.0202
[4]; [7]
  total FIC90: 0.257
[4]; [8]
  total FIC90: 1.52
[4]; [9]
  total FIC90: 1.09
[4]; [11]
  total FIC90: 2.05
[4]; [12]
  total FIC90: 1.18
[4]; [13]
  total FIC90: 0.391
[4]; [14]
  total FIC90: 1.32
[4]; [15]
  total FIC90: 0.0103
[4]; [16]
  total FIC90: 1.09
[4]; [17]
  total FIC90: 0.915
[4]; [19]
  total FIC90: 1.37
[5]; [6]
  GRinf: -0.45
[5]; [7]
  GRinf: -0.318
[5]; [8]
  GRinf: -0.311
[5]; [9]
  GRinf: -0.185
[5]; [10]
  GRinf: -0.0316
[5]; [11]
  GRinf: -0.14
[5]; [12]
  GRinf: -0.441
[5]; [13]
  GRinf: -0.938
[5]; [14]
  GRinf: 0.221
[5]; [15]
  GRinf: -0.216
[5]; [16]
  GRinf: -0.884
[5]; [17]
  GRinf: -0.277
[5]; [18]
  GRinf: -0.138
[5]; [19]
  GRinf: 0.125

## CC(C)/N=c1\cc2n(-c3ccc(Cl)cc3)c3ccccc3nc-2cc1Nc1ccc(Cl)cc1 [clofazimine] + CC[C@@H](CO)NCCN[C@@H](CC)CO [ethambutol] + CC(=O)NC[C@H]1CN(c2ccc(N3CCOCC3)c(F)c2)C(=O)O1 [linezolid]
[1]; [6]
  Einf: 0.811
[1]; [7]
  Einf: 0.963
[1]; [8]
  Einf: 0.96
[1]; [9]
  Einf: 0.977
[1]; [10]
  Einf: 0.746
[1]; [11]
  Einf: 0.917
[1]; [12]
  Einf: 0.925
[1]; [13]
  Einf: 1
[1]; [14]
  Einf: 0.783
[1]; [15]
  Einf: 0.963
[1]; [16]
  Einf: 1
[1]; [17]
  Einf: 0.949
[1]; [18]
  Einf: 0.869
[1]; [19]
  Einf: 0.881
[2]; [6]
  AUC25: 0.105
[2]; [7]
  AUC25: 0.0957
[2]; [8]
  AUC25: 0.11
[2]; [9]
  AUC25: 0.0792
[2]; [10]
  AUC25: 0.148
[2]; [11]
  AUC25: 0.165
[2]; [12]
  AUC25: 0.129
[2]; [13]
  AUC25: 0.125
[2]; [14]
  AUC25: 0.0953
[2]; [15]
  AUC25: 0.0972
[2]; [17]
  AUC25: 0.122
[2]; [18]
  AUC25: 0.11
[2]; [19]
  AUC25: 0.0648
[3]; [6]
  total FIC50: 0.0935
[3]; [7]
  total FIC50: 0.906
[3]; [8]
  total FIC50: 0.534
[3]; [9]
  total FIC50: 0.703
[3]; [11]
  total FIC50: -0.786
[3]; [12]
  total FIC50: 0.0764
[3]; [13]
  total FIC50: -0.259
[3]; [14]
  total FIC50: 0.231
[3]; [15]
  total FIC50: 0.197
[3]; [17]
  total FIC50: 0.243
[3]; [18]
  total FIC50: 0.664
[3]; [19]
  total FIC50: 0.302
[4]; [7]
  total FIC90: 0.401
[4]; [9]
  total FIC90: 0.483
[4]; [13]
  total FIC90: 0.74
[4]; [15]
  total FIC90: 0.279
[4]; [16]
  total FIC90: 0.836
[4]; [19]
  total FIC90: -0.133
[5]; [6]
  GRinf: -0.393
[5]; [7]
  GRinf: -0.297
[5]; [8]
  GRinf: -0.165
[5]; [9]
  GRinf: -0.123
[5]; [10]
  GRinf: -0.203
[5]; [11]
  GRinf: -0.514
[5]; [12]
  GRinf: -1
[5]; [13]
  GRinf: -0.967
[5]; [14]
  GRinf: 0.496
[5]; [15]
  GRinf: -0.701
[5]; [16]
  GRinf: -0.815
[5]; [17]
  GRinf: -0.0541
[5]; [18]
  GRinf: -0.282
[5]; [19]
  GRinf: -0.0657
